Here are results for 14 compounds from patent US10519169B2, “3-(1H-pyrrolo[2,3-C]pyridin-2-yl)-1 H-pyrazolo[4,3-B]pyridines and therapeutic uses thereof” (Samumed, LLC, priority 2015, dated 2019).

Common to all, as to type: cell-based
One test deals with SW480 colon cancer cells. The experiment in a line: Cell viability assay (CellTiter-Blue), SW480 cells. As to conditions: Homo sapiens; for EC50: 96 h, four days, CellTiter-Blue; for inhibition at 10 µM: given for EC50 >10 μM, read-out: percent inhibition at 10 μM. The method, boiled down: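 SW480 cells (~2×10^3/well) exposed to compound for four days at 37 °C/5% CO2, 1:3 8-point dilutions […]. Viability read by CellTiter-Blue resazurin reduction (~3 h, Ex 560/Em 590 nm); EC50 by non-linear regression, with % inhibition at 10 μM given when EC50 >10 μM.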

The subject of test [1] is Wnt activity (Sp5-Luc reporter, TCF/LEF binding sites) in SW480 colon carcinoma cells. The experiment in a line: Wnt activity screening assay, Sp5-Luc reporter gene in SW480 cells. The settings on record: Homo sapiens; for inhibition at 10 µM: given for EC50 >10 μM, read-out: percent inhibition at 10 μM; for EC50: overnight incubation. The method, boiled down: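 Luminescence (BrightGlo) was normalised to DMSO-only wells and fitted with a four-parameter variable-slope model for EC50; beyond 10 μM, % inhibition at 10 μM is given. Stable Sp5-Luc SW480 reporter cells, 4,000/well in 1% FBS, were exposed overnight at 37 °C to compounds, top 10 μM, 1:3 dilutions, 0.1% DMSO.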

The test system of a further test is IL-6. The experiment in a line: IL-6 inhibition in LPS-stimulated THP-1 cells (HTRF). As to conditions: Homo sapiens; for EC50: LPS 500 ng/mL, 22 hours, IL6 HTRF; for inhibition at 10 µM: given for EC50 >10 μM, LPS, IL6, at 10 M [sic], read-out: percent inhibition at 10 M. In outline:
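THP-1 monocytes, serum-reduced (1% FBS) for 24 h, were preincubated 2 h with compound at 0.1% DMSO (10-point, 1:3 dilutions from 10 μM), then stimulated with 500 ng/mL LPS for 22 h at 37 °C. IL-6 was quantified by HTRF (665/620 nm ratio), normalized to DMSO. EC50 came from 4-parameter regression, or % inhibition at 10 μM.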

For `Nc1cncc(-c2ccc3[nH]nc(-c4cc5c(-c6ccncc6)cncc5[nH]4)c3n2)c1` [Compound 115, 5-(3-(4-(Pyridin-4-yl)-1H-pyrrolo[2,3-c]pyridin-2-yl)-1H-pyrazolo[4,3-b]pyridin-5-yl)pyridin-3-amine], the EC50 is more than 10 µM with SW480 colon cancer cells, more than 10 µM in test [1] and 1.03 µM with IL-6. Further, the inhibition at 10 µM in the test on SW480 colon cancer cells came to 7.6%; in test [1] it was 30.1%.

`c1cc(-c2cncc3[nH]c(-c4n[nH]c5ccc(-c6cncc(CN7CCCCC7)c6)nc45)cc23)ccn1` [Compound 127, 5-(5-(Piperidin-1-ylmethyl)pyridin-3-yl)-3-(4-(pyridin-4-yl)-1H-pyrrolo[2,3-c]pyridin-2-yl)-1H-pyrazolo[4,3-b]pyridine]: the EC50 in the test on SW480 colon cancer cells was 5.26 µM; in test [1], more than 10 µM; in the test on IL-6, 2.85 µM. For the same compound, the inhibition at 10 µM in test [1] worked out at 29.6%.

Take `O=C(Nc1cncc(-c2ccc3[nH]nc(-c4cc5ccncc5[nH]4)c3n2)c1)C1CCCC1` [Compound 274, N-(5-(3-(1H-Pyrrolo[2,3-c]pyridin-2-yl)-1H-pyrazolo[4,3-b]pyridin-5-yl)pyridin-3-yl)cyclopentanecarboxamide]: the EC50 in the test on SW480 colon cancer cells was 3.12 µM; in test [1], 2.63 µM; in the test with IL-6 it was 0.235 µM.

With `c1ccc(-c2ccc3[nH]nc(-c4cc5ccncc5[nH]4)c3n2)nc1` [Compound 280, 5-(Pyridin-2-yl)-3-(1H-pyrrolo[2,3-c]pyridin-2-yl)-1H-pyrazolo[4,3-b]pyridine], the EC50 (in the test with SW480 colon cancer cells; in test [1]; in the test with IL-6) was more than 10 µM in each case. The inhibition at 10 µM in the test on SW480 colon cancer cells is 3.3%; in test [1], 2.1%; in the test on IL-6, 47.2%.

As for `O=C(Cc1ccccc1)Nc1cncc(-c2ccc3[nH]nc(-c4cc5c(-c6ccoc6)cncc5[nH]4)c3n2)c1` [Compound 318, N-(5-(3-(4-(Furan-3-yl)-1H-pyrrolo[2,3-c]pyridin-2-yl)-1H-pyrazolo[4,3-b]pyridin-5-yl)pyridin-3-yl)-2-phenylacetamide], the 50% effective concentration (EC50) (in the test on SW480 colon cancer cells; in test [1]; in the test on IL-6) was more than 10 µM in each case. Besides, the inhibition at 10 µM was determined as 23.8% with SW480 colon cancer cells, 0% in test [1] and 30.9% in the test with IL-6.

`Cc1ccncc1-c1ccc2[nH]nc(-c3cc4c(-c5cc(F)cc(CNS(C)(=O)=O)c5)cncc4[nH]3)c2n1` [Compound 481, N-(3-Fluoro-5-(2-(5-(4-methylpyridin-3-yl)-1H-pyrazolo[4,3-b]pyridin-3-yl)-1H-pyrrolo[2,3-c]pyridin-4-yl)benzyl)methanesulfonamide]: the EC50 in the test on SW480 colon cancer cells amounted to 2.78 µM; in test [1], 0.98 µM; in the test on IL-6 it was 0.115 µM.

For the compound `CS(=O)(=O)NCc1cc(F)cc(-c2cncc3[nH]c(-c4n[nH]c5ccc(-c6cncc(CN7CCCCC7)c6)nc45)cc23)c1` [Compound 491, N-(3-Fluoro-5-(2-(5-(5-(piperidin-1-ylmethyl)pyridin-3-yl)-1H-pyrazolo[4,3-b]pyridin-3-yl)-1H-pyrrolo[2,3-c]pyridin-4-yl)benzyl)methanesulfonamide], the EC50 was 1.96 µM in the test on SW480 colon cancer cells, 1.3 µM in test [1] and 0.213 µM with IL-6.

Take `CS(=O)(=O)NCc1cc(F)cc(-c2cncc3[nH]c(-c4n[nH]c5ccc(-c6cncnc6)nc45)cc23)c1` [Compound 503, N-(3-Fluoro-5-(2-(5-(pyrimidin-5-yl)-1H-pyrazolo[4,3-b]pyridin-3-yl)-1H-pyrrolo[2,3-c]pyridin-4-yl)benzyl)methane sulfonamide]: the figures for the EC50 (in the test on SW480 colon cancer cells; in test [1]; with IL-6) were more than 10 µM, more than 10 µM and 0.649 µM, respectively. The inhibition at 10 µM is 28.3% with SW480 colon cancer cells and 46.4% in test [1].

With `CS(=O)(=O)NCc1cc(F)cc(-c2cncc3[nH]c(-c4n[nH]c5ccc(-c6ccccn6)nc45)cc23)c1` [Compound 504, N-(3-Fluoro-5-(2-(5-(pyridin-2-yl)-1H-pyrazolo[4,3-b]pyridin-3-yl)-1H-pyrrolo[2,3-c]pyridin-4-yl)benzyl)methanesulfonamide], the results for the EC50 (in the test on SW480 colon cancer cells; in test [1]; with IL-6) were more than 10 µM, 3.65 µM and 0.031 µM, respectively. In the test with SW480 colon cancer cells, the inhibition at 10 µM came out at 47.6%.

`Fc1cccc(-c2cncc3[nH]c(-c4n[nH]c5ccc(C6CCNCC6)nc45)cc23)c1` [Compound 505, 3-(4-(3-Fluorophenyl)-1H-pyrrolo[2,3-c]pyridin-2-yl)-5-(piperidin-4-yl)-1H-pyrazolo[4,3-b]pyridine]: the EC50 was more than 10 µM in the test on SW480 colon cancer cells, more than 10 µM in test [1] and 1.11 µM in the test on IL-6. In addition, the inhibition at 10 µM in the test on SW480 colon cancer cells turned out to be 26%; in test [1] it was 32.9%.

Turning to `Fc1ccccc1-c1cncc2[nH]c(-c3n[nH]c4ccc(-c5cn[nH]c5)nc34)cc12` [Compound 539, 3-(4-(2-Fluorophenyl)-1H-pyrrolo[2,3-c]pyridin-2-yl)-5-(1H-pyrazol-4-yl)-1H-pyrazolo[4,3-b]pyridine], the concentration for a half-maximal effect (EC50) was 2.89 µM in the test with SW480 colon cancer cells, 1.2 µM in test [1] and 0.16 µM with IL-6.

For `Cn1cc(-c2ccc3[nH]nc(-c4cc5c(-c6cccnc6)cncc5[nH]4)c3n2)cn1` [Compound 556, 5-(1-Methyl-1H-pyrazol-4-yl)-3-(4-(pyridin-3-yl)-1H-pyrrolo[2,3-c]pyridin-2-yl)-1H-pyrazolo[4,3-b]pyridine], the values for the EC50 (in the test with SW480 colon cancer cells; in test [1]; in the test with IL-6) were 4.04 µM, 7.02 µM and 3.71 µM, respectively.

In the case of `Cc1ncc(-c2ccc3[nH]nc(-c4cc5c(-c6ccncc6)cncc5[nH]4)c3n2)n1C` [Compound 573, 5-(1,2-Dimethyl-1H-imidazol-5-yl)-3-(4-(pyridin-4-yl)-1H-pyrrolo[2,3-c]pyridin-2-yl)-1H-pyrazolo[4,3-b]pyridine], the EC50 (in the test on SW480 colon cancer cells; in test [1]; in the test on IL-6) was more than 10 µM in each case. Also, the inhibition at 10 µM in the test with SW480 colon cancer cells is 5.3%; in test [1] it was 43.9%; in the test on IL-6, 0%.

As to `c1cc(-c2cncc3[nH]c(-c4n[nH]c5ccc(-c6cncc(OCCN7CCCC7)c6)nc45)cc23)co1` [Compound 690, 3-(4-(Furan-3-yl)-1H-pyrrolo[2,3-c]pyridin-2-yl)-5-(5-(2-(pyrrolidin-1-yl)ethoxy)pyridin-3-yl)-1H-pyrazolo[4,3-b]pyridine], the EC50 (in the test with SW480 colon cancer cells; in test [1]; in the test with IL-6) was more than 10 µM throughout. The inhibition at 10 µM amounted to 0% with SW480 colon cancer cells, 7.4% in test [1] and 9.7% with IL-6.
